The target in the experiment is T1, acetylcholine muscarinic M1 receptor (Homo sapiens, UniProt P11229).
T1 construct: expressed in transfected cells; host or cells: CHOnfat (CHO cells; also called CHOK1/hM1), selected with Geneticin
T1 sequence (P11229 1-460): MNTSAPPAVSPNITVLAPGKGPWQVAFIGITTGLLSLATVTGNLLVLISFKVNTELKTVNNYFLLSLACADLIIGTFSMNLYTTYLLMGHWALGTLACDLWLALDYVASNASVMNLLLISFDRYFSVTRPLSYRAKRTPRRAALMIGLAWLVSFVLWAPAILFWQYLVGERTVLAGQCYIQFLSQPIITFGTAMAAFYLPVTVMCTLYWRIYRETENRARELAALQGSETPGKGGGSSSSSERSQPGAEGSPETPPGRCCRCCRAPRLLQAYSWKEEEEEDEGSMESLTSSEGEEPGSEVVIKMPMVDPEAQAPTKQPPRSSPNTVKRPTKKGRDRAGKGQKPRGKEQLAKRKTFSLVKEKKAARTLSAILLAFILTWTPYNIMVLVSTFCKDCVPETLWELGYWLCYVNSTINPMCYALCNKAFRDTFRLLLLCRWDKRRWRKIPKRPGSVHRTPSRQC
As to the kind of experiment: muscarinic FLIPR assay: potentiation of acetylcholine (EC20)-stimulated intracellular calcium in CHOnfat/hM1 cells. The settings on record: 4 min preincubation, then EC20 acetylcholine (3 nM final), read-out: IP Value (inflection point). In kind it is cell-based. The protocol:
The assay studies the effect of one or several concentrations of test compounds on basal or acetylcholine-stimulated Ca^2+ levels using FLIPR.
Compounds are prepared and subjected to a preincubation period of 4 min. Thereafter, a single EC20 concentration of acetylcholine is added to each well (3 nM final). The intracellular Ca^2+ level of each sample is measured and compared to an acetylcholine control to determine any modulatory activity.
Cells: CHOnfat/hM1, hM2, hM3 or hM4 cells are plated 24 hr before the assay at a density of 18,000 cells/well (100 μL) in a 384 well plate. CHOnfat/hM1 and CHOnfat/hM3 Growth Medium: 90% DMEM (Hi Glucose); 10% HI FBS; 2 mM L-glutamine; 0.1 mM NEAA; Pen-Strep; and 1 mg/ml Geneticin, are added. For M2Gqi5CHOnfat and M4Gqi5CHOnfat cells, an additional 600 μg/ml hygromycin is added.
Equipment: 384 well plate, 120 μL addition plate; 96-well Whatman 2 ml Uniplate Incubator, 37° C., 5% CO2; Skatron EMBLA-384 Plate Washer; Multimek Pipetting System; Genesis Freedom 200 System; Mosquito System; Temo Nanolitre Pipetting System; and FLIPR^384 Fluorometric Imaging Plate Reader System are used.
Buffers. Assay Buffer: Hanks Balanced Salt Solution, with 20 mM Hepes, 2.5 mM Probenecid (Sigma P-8761) first dissolved in 1N aqueous NaOH, 1% Bovine Serum Albumin (Sigma A-9647). Dye Loading Buffer: Assay Buffer plus 1% Fetal Bovine Serum and Fluo-4AM/Pluronic Acid Mixture. 2 mM Fluo-4AM ester stock in DMSO (Molecular Probes F-14202) Concentration of 2 μM in buffer for a final concentration of 1 μM in Assay. 20% Pluronic Acid Solution stock, with a concentration of 0.04% in Buffer, 0.02% in Assay.
65 μl of 2 mM Fluo-4AM are mixed with 130 μL of 20% Pluronic Acid. The resulting solution and 650 μL FBS is added to the assay buffer for a total volume of 65 mL. Positive Controls: 4-Br-A23187: 10 mM in DMSO; final concentration 10 μM. Acetylcholine: 10 mM in water, working stock at both 20 μM and 30 μM in assay buffer, final concentration of 10 μM. This is used to check the maximum stimulation of the CHOK1/hM1 cells. 20 μM (2×) acetylcholine is added in the preincubation part of the assay, and the 30 μM (3×) stock is added in the second part. (EC20) Acetylcholine: 10 mM in water, working stock of 9 nM (3×), and final concentration in assay is 3 nM. This is used after the preincubation with test compounds. Addition of the EC20 Acetylcholine to each well with a test compound will ascertain any modulator activity. 24 wells contain 3 nM Acetylcholine alone as a control.
Determining Activity of Putative Compounds:
Screening Plate: Compounds are titrated in 96-well plates (columns 2-11), 100% DMSO, started at a concentration of 15 mM (150× stock concentration), and 3-fold serial dilutions using Genesis Freedom200 System. Four 96-well plates are combined into a 384-well plate using Mosquito Nanolitre Pipetting System by transferring 1 μl of serial diluted compounds to each well, and 1 mM acetylcholine (100× stock concentration) were added as a control. Using Temo, 49 μl assay buffer is added to each well of the 384-well plate right before assay.
In a 96-well Whatman 2 ml Uniplate, 9 nM Acetylcholine (3×) is pipetted into wells corresponding to the screening compounds and into control wells. The 30 μM acetylcholine control (3×) is added into control wells and the 3× agonist plate is transferred into a 384-well plate.
Cells are washed three times with 100 μL of buffer, leaving 30 μL of buffer in each well. Using Multimek, 30 μL of Dye Loading Buffer is added into each well and incubated at 37° C., 5% CO2 for up to one hr.
After 60 min, the cells are washed three times with 100 μL of buffer, leaving 30 μL of buffer in each well. The cell plate, screening plate, and agonist addition plates are placed on the platform in the FLIPR and the door is closed. A signal test to check background fluorescence and basal fluorescence signal is performed. Laser intensity is adjusted if necessary. […]
(Calcium flux is commonly read through the fluorescence of an indicator in the cells.)
As to `O=C(O)c1cc(CN2Cc3ccccc3C[C@@H]2CO)c2ccccn2c1=O` [Example 7], the EC50 is 8980 nM.

As for `Cc1ccc2c(c1)CCN(Cc1cc(C(=O)O)c(=O)n3ccccc13)C2` [Example 89, 1-[(6-methyl-3,4-dihydroisoquinolin-2(1H)-yl)methyl]-4-oxo-4H-quinolizine-3-carboxylic acid], the EC50 was 6700 nM. In the case of `O=C(O)c1cc(CN2CCc3cc(-c4ccccc4)ccc3C2)c2ccccn2c1=O` [Example 87, 4-Oxo-1-[(6-phenyl-3,4-dihydroisoquinolin-2(1H)-yl)methyl]-4H-quinolizine-3-carboxylic acid] it was 6200 nM; in that of `O=C(O)c1cc(CN2CCc3ccccc3C2c2ccccc2F)c2ccccn2c1=O` (centres unmarked) [Example 18], 150 nM. In the case of `O=C(O)c1cc(CN2CCc3cnccc3C2)c2ccccn2c1=O` [Example 54] it was 900 nM; in that of `O=C(O)c1cc(CN2CCc3ccccc3C2)c2ccccn2c1=O` [Example 6], 1720 nM; in that of `N#Cc1ccc2c(c1)CCN(Cc1cc(C(=O)O)c(=O)n3ccccc13)C2` [Example 88, 1-[(6-cyano-3,4-dihydroisoquinolin-2(1H)-yl)methyl]-4-oxo-4H-quinolizine-3-carboxylic acid], 12000 nM. On to `O=C(O)c1cc(CN2CCn3c(-c4ccccc4)cnc3C2)c2ccccn2c1=O` [Example 69], for which the EC50 stood at 4180 nM. `CCOC(=O)C1c2ccccc2CCN1Cc1cc(C(=O)O)c(=O)n2ccccc12` (centres unmarked) [Example 11]: the EC50 was 286 nM.

In the case of `O=C(O)c1cc(CN2CCc3ccccc3C2c2ccncc2)c2ccccn2c1=O` (centres unmarked) [Example 17], the EC50 was found to be 84 nM. Regarding `O=C(O)c1cc(CN2CCc3cc(Cl)ccc3C2)c2ccccn2c1=O` [Example 1, 1-[(6-chloro-3,4-dihydroisoquinolin-2(1H)-yl)methyl]-4-oxo-4H-quinolizine-3-carboxylic acid], the EC50 is 510 nM.

(Values after patent US8173672B2, “Quinolizidinone M1 receptor positive allosteric modulators” (Merck Sharp & Dohme Corp., priority 2008, dated 2012).)
